Data published in ChEMBL document CHEMBL1201862, “PubChem BioAssay data set” (2004).
Activity calls are given as the source filed them.

Tests used:
[1] = growth suppression of beta-catenin-knockout colon cells, dose response, cell-based, HCT116, human colon tumor (AID 1045); format: functional;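 also: HCT116 colon tumor cells with beta catenin knocked out; cells exposed to compound for 60 hours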
Fatty acid synthase [2] = biological target: T1, Fatty acid synthase (Homo sapiens, UniProt P49327); experiment: FAS thioesterase domain inhibitors, dose response, biochemical, kinetic fluorescence intensity (AID 624326); format: functional;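 also: rate of fluorescence rise from hydrolysis of a fluorogenic O-methyl fluorescein ester substrate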
[3] = growth suppression of PTEN-null colon cells, dose response, cell-based, HCT116 PTEN knockout (AID 1047); format: functional;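 also: HCT116 colon tumor cells with PTEN knocked out; cells exposed to compound for 60 hours before readout; potency for loss of cell viability measured by luminescence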
Fatty acid synthase [4] = biological target: T1, Fatty acid synthase; experiment: FAS thioesterase domain inhibitors, dose response, biochemical, endpoint fluorescence intensity, uHTS hits (AID 624327); format: functional;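 also: fluorescence from hydrolysis of an O-methyl fluorescein acyl ester substrate by the enzyme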
[5] = biological target: T2, Disintegrin and metalloproteinase domain-containing protein 17 (Homo sapiens, UniProt P78536); experiment: ADAM17 protease inhibitors, dose response, counter-screen for ADAM10 exosite inhibitor project, biochemical, quenched FRET substrate (AID 743253)
[6] = biological target: T3, RNA-editing ligase 1, mitochondrial (Trypanosoma brucei brucei, UniProt P86926); experiment: TbREL1 ligase inhibitors, dose response, biochemical, fluorescence, Trypanosoma brucei (AID 1117295); format: functional
T3 sequence (P86926 whole entry): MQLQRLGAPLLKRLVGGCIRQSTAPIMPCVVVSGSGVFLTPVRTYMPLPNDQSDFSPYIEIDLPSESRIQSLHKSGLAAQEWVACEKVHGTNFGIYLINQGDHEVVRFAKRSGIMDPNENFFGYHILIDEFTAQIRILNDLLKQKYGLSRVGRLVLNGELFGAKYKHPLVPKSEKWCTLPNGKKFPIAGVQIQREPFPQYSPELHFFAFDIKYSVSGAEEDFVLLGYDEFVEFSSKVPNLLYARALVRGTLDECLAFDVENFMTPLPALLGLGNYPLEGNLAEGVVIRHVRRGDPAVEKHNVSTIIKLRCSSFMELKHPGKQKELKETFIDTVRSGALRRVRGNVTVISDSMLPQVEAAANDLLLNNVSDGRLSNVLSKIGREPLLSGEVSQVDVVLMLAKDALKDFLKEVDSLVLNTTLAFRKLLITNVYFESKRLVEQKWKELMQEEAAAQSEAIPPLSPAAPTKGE

[7] = biological target: T2, Disintegrin and metalloproteinase domain-containing protein 17; experiment: exosite inhibitors of ADAM17, dose response, biochemical (AID 743260)
[8] = ADAM10 protease inhibitors, dose response, selectivity assay for ADAM17 exosite inhibitor project, biochemical, FRET peptide substrate, recombinant human ADAM10 (AID 743259);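 also: ADAM10 enzyme cleaving a FRET peptide substrate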
Cytochrome P450 2D6 = Cytochrome P450 2D6 (Homo sapiens, UniProt P10635);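 also: CYP2D6 member of a cytochrome P450 panel assay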
[9] = biological target: T4, Tyrosine-protein phosphatase non-receptor type 7 (Homo sapiens, UniProt P35236); experiment: inhibitors of human HePTP phosphatase, […], biochemical, absorbance, leukemia target (AID 521); format: functional
T4 sequence (P35236 whole entry): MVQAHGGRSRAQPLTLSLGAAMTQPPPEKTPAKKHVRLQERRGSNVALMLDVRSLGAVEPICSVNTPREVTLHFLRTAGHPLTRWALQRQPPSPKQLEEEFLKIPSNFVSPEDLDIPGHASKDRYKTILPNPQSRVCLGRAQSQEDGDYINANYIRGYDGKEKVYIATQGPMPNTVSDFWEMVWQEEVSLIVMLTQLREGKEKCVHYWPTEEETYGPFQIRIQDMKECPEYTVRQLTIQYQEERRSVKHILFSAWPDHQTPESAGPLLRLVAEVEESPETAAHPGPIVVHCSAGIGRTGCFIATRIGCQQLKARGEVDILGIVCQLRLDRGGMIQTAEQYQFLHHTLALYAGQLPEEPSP

[10] = ZM109 Env clade C HIV-1 fusion inhibitors, dose response, HeLa effector, CEM target cells, luciferase, cherry-pick (AID 652058); format: functional, cell-based
[11] = inhibitors of HIV Env-driven cell fusion, dose response, cherry-pick (AID 652057); format: functional, cell-based
[12] = CEM21 lymphoblast cell cytotoxicity, dose response, cytotoxicity control for viral fusion inhibitor project, CellTiter-Glo luminescence, cherry-picked (AID 652042); format: functional, cell-based;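 also: potency for signal decrease meaning cytotoxicity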
[13] = biological target: Induced myeloid leukemia cell differentiation protein Mcl-1 (Homo sapiens, UniProt Q07820); format: functional
[14] = inhibitors of clade B AD8 Env fusion, dose response, cell-based, cherry-pick (AID 652062); format: functional;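 also: luciferase signal from cell-cell fusion driven by HIV-1 clade B AD8 Env; potency is for inhibitors of fusion seen as a drop in luminescence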
HEK293 [15] = experiment: cells; conditions: Homo sapiens
[16] = biological target: T5, Polyadenylate-binding protein 1 (Homo sapiens, UniProt P11940); experiment: PABP1 MLLE–PAM2 binding inhibitor potency, dose response, biochemical, fluorescence polarization, FITC-PAM2 peptide (AID 602259); format: functional; conditions: read-out: IC50_Mean
HEK293 [17] = experiment: cells; conditions: Homo sapiens; remark: listed apart in the source
[18] = biological target: T5, Polyadenylate-binding protein 1; experiment: PABP1 MLLE–PAM2 interaction inhibitors, dose response, miRNA deadenylation inhibitor project, biochemical, fluorescence polarization, Cy5-PAM2 peptide, secondary (AID 602260); format: functional; conditions: read-out: IC50_Mean
[19] = off-target signal loss in HeLa-CEM21 co-culture – HeLa F-luc CTL cells, cherry-picked, counter-screen for HIV-1 Env fusion inhibitor project, dose response (AID 652040); format: functional, cell-based;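 also: potency for signal decrease marking cytotoxic or nonspecific inhibition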
Vero = experiment: cells; format: functional; conditions: Chlorocebus sabaeus
[20] = biological target: NAD-dependent protein deacylase sirtuin-5, mitochondrial (Homo sapiens, UniProt Q9NXA8); experiment: SIRT5 desuccinylase inhibitors, dose response, biochemical, fluorescence imaging, cherry-pick, set 5 (AID 720591);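 also: desuccinylation of succinyl peptide AMC substrate read as fluorescence after trypsin release; potency of inhibitors that lower fluorescence and may act on trypsin instead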
[21] = biological target: T6, Rac GTPase-activating protein 1 (Homo sapiens, UniProt Q9H0H5); experiment: MgcRacGAP GTPase-activating activity inhibitors, confirmation, biochemical, ADP Hunter fluorescence, primary and confirmatory (AID 624330); format: functional
T6 sequence (Q9H0H5 whole entry): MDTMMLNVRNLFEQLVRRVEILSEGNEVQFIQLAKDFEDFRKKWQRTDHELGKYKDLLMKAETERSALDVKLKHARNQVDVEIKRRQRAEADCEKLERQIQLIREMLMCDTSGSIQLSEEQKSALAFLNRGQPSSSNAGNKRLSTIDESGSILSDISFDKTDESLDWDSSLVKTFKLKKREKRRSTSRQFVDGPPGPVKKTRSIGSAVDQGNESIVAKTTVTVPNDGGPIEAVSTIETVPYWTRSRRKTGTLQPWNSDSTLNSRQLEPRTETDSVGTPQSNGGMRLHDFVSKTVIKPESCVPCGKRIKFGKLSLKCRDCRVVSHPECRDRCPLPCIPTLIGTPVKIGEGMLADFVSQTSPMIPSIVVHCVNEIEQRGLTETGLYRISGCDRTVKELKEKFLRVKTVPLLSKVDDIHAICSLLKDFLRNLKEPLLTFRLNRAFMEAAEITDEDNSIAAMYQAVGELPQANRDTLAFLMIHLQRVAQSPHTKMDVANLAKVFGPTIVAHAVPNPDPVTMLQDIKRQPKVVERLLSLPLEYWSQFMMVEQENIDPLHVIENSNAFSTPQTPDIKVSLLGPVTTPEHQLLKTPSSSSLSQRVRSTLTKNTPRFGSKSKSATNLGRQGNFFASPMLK

[22] = inhibitors of Vif binding to APOBEC3G peptide, primary screen, biochemical, TR-FRET, GST-Vif 1-94, biotin-A3G peptide, dose response retest (AID 1117319); format: functional;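 also: TR-FRET signal of purified GST-Vif binding a biotinylated A3G peptide; inhibitors lower the FRET signal by blocking Vif and A3G binding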
[23] = biological target: T7, Microphthalmia-associated transcription factor (Homo sapiens, UniProt O75030); experiment: TRPM1 promoter luciferase signal decrease, dose response, MITF inhibitor project, cell-based, SK-MEL-5, cherry-picked, set 3 (AID 493073); format: functional
T7 sequence (O75030 whole entry): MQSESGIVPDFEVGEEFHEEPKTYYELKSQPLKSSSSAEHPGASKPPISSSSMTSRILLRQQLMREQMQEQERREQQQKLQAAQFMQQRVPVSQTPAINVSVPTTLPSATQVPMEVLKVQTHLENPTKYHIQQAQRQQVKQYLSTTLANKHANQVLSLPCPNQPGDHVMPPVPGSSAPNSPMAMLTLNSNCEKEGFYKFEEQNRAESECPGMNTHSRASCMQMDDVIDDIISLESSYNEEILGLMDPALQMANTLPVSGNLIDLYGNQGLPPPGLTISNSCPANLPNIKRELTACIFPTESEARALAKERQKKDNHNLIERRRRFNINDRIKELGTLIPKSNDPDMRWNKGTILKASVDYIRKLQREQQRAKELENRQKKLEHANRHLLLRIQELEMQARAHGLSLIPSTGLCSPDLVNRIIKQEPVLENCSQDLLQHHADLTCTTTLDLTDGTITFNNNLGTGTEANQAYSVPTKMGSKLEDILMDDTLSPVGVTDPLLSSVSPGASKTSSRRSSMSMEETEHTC

INS1 = experiment: beta cell apoptosis inhibitors, cytokine rescue, dose response, luminescence, retest (AID 449756); format: functional, cell-based; conditions: Rattus norvegicus;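 also: cell death triggered by IL-1 beta plus TNF-alpha plus IFN-gamma mixture; protective hits raise ATP signal compared with cytokine alone wells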
[24] = A375 melanoma cell cytotoxicity, dose response, counter-screen for MITF inhibitor project, CellTiter-Glo luminescence, dry powder, set 2 (AID 624489); format: functional, cell-based; conditions: A-375;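 also: actives are compounds lowering A375 viability meaning general cytotoxicity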
Estrogen receptor beta = Estrogen receptor beta (Homo sapiens, UniProt Q92731);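 also: recombinant ER-beta bound to coactivator SRC1 peptide in presence of estradiol agonist; inhibitors block coactivator peptide binding and lower the FRET signal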
[25] = inhibitors of PGC1a acetylation in cells, dose response, cell-based, cherry-picked samples (AID 720514); format: functional;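 also: potency may reflect raised or lowered acetylation signal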

T2 sequence (P78536 whole entry, the tested form may be a part): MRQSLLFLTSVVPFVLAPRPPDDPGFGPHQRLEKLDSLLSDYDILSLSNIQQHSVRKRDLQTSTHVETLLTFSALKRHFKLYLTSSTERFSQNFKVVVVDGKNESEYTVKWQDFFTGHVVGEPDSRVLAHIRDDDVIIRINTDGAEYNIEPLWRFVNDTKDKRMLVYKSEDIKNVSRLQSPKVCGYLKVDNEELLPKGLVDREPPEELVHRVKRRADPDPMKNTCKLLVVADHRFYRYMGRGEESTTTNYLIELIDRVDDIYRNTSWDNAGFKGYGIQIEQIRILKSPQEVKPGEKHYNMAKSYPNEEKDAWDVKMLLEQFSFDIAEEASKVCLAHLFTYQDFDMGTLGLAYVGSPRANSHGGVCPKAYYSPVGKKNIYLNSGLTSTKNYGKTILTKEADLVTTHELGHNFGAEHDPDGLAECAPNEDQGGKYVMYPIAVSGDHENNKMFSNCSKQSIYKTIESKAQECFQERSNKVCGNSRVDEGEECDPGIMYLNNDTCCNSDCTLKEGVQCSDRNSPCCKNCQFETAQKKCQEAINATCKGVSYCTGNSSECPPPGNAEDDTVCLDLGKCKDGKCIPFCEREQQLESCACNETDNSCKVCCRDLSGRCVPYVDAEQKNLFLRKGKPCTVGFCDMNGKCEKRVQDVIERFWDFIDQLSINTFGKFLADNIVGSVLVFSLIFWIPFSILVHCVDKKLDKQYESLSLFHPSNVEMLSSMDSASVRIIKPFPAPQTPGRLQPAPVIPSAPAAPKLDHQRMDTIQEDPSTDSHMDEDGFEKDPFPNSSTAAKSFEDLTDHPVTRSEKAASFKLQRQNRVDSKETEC
T1 sequence (P49327 whole entry, the tested form may be a part): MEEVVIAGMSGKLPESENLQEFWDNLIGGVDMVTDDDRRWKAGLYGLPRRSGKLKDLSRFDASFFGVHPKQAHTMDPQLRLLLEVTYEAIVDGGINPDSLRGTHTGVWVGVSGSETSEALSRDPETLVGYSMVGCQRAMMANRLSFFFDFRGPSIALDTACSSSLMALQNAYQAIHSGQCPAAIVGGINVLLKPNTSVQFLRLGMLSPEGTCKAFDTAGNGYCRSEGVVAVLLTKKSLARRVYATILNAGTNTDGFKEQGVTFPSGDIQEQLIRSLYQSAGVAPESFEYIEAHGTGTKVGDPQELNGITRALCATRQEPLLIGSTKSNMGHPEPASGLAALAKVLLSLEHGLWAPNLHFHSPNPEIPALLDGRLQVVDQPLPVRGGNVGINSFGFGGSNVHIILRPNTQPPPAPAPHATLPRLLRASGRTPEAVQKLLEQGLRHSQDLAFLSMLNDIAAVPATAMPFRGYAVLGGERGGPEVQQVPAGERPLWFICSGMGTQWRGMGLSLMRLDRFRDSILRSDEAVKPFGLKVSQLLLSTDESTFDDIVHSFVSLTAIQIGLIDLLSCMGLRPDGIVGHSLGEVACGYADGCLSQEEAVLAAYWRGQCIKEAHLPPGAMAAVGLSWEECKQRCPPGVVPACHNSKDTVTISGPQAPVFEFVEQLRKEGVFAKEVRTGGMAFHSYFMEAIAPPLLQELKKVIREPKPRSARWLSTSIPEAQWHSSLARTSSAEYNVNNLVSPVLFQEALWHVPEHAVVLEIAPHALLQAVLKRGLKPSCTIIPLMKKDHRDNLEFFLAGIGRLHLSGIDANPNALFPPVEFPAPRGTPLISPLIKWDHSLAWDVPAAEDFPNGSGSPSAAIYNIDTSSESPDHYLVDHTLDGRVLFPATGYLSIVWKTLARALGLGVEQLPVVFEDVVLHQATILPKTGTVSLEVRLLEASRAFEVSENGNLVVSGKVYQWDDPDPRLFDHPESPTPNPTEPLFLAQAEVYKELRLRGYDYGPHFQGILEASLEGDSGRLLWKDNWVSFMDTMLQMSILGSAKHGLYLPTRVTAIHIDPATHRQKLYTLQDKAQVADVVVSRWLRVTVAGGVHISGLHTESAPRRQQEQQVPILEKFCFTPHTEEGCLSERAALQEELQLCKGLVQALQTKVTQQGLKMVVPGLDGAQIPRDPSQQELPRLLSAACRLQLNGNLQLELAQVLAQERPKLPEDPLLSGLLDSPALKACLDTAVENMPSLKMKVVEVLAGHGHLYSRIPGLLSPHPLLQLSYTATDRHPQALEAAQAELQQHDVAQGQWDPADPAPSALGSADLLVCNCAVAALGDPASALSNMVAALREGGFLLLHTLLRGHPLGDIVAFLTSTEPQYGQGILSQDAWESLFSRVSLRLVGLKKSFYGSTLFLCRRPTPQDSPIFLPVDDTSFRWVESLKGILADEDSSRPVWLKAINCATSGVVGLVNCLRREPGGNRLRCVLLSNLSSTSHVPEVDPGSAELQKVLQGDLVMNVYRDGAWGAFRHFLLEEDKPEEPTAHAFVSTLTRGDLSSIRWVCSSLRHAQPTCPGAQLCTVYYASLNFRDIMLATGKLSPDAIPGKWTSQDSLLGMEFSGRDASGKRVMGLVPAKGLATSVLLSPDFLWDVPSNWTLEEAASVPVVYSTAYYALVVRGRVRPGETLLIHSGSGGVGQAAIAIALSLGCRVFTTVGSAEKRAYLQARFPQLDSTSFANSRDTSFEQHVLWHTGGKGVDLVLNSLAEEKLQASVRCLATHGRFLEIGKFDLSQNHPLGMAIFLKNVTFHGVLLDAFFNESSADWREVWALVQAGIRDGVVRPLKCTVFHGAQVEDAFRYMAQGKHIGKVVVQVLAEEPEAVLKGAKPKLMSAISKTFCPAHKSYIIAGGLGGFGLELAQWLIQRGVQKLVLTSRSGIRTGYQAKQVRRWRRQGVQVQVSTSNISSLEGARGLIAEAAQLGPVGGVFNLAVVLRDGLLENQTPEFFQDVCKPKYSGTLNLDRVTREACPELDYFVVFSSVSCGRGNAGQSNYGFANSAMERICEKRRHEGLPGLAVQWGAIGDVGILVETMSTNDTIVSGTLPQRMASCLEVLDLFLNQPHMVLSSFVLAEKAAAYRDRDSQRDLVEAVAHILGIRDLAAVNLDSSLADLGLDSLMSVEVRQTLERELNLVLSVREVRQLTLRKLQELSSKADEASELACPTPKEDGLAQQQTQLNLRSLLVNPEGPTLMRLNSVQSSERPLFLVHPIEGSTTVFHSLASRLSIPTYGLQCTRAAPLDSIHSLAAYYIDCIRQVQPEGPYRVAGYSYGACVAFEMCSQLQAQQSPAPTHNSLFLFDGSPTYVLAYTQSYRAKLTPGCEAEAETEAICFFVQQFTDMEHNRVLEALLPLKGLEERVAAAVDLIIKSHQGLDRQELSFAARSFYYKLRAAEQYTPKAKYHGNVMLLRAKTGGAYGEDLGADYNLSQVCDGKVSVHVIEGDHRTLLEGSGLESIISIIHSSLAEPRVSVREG
Chain of NAD-dependent protein deacylase sirtuin-5, mitochondrial (Q9NXA8 whole entry): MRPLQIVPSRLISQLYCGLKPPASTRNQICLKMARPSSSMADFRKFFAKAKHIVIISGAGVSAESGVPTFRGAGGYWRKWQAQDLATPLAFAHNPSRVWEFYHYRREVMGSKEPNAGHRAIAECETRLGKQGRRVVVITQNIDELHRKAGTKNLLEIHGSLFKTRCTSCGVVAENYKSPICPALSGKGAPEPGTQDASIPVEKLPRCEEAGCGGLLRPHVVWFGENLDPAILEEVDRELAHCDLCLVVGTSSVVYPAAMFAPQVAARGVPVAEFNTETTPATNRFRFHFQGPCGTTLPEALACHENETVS
T5 sequence (P11940 whole entry): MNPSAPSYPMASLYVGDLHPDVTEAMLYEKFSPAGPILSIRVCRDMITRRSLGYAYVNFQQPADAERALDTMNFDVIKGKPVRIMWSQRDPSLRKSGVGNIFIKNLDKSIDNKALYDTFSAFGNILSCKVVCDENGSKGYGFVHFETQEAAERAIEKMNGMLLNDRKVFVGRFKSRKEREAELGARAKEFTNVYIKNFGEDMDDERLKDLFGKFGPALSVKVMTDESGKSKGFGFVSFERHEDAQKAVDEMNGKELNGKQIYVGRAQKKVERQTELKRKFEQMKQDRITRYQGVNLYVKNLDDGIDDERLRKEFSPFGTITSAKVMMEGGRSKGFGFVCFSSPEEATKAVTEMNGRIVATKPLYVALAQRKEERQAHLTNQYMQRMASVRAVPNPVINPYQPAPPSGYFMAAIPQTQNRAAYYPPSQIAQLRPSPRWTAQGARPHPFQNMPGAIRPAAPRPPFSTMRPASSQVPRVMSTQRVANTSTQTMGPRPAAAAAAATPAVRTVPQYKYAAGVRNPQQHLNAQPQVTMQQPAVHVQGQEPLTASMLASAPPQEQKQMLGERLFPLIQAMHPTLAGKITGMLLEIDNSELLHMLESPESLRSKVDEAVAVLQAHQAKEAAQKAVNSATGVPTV
Chain of Cytochrome P450 2D6 (P10635 whole entry): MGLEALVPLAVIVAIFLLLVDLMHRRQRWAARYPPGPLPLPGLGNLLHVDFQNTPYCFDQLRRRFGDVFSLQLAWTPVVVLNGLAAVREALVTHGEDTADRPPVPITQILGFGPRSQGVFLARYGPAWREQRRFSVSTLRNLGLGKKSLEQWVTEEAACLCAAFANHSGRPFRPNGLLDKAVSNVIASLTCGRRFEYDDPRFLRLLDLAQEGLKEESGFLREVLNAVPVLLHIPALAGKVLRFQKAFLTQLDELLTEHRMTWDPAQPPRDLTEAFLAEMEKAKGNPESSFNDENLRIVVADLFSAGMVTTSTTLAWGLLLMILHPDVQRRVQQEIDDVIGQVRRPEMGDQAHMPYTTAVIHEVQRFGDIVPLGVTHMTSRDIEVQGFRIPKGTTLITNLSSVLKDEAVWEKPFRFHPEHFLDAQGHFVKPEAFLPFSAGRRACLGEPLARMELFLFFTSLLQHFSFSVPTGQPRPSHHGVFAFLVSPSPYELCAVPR

SMILES: Fc1c(F)c(C(F)(F)F)c(F)c(F)c1N/N=C\c1cccs1
- EC50 [1]: 43.1 µM (active)
- IC50 (Fatty acid synthase [2]): 10.2 µM (active)
- EC50 [3]: 109 µM (active)
- IC50 (Fatty acid synthase [4]): 10.4 µM (active)
- IC50 [5]: > 69.5 µM (inactive)

SMILES: COC(=O)C1=C(C)N(Cc2ccccc2C(F)(F)F)C(NCc2ccc3c(c2)OCO3)=NC1c1cccc(Cl)c1 (centres undefined)
- IC50 [6]: > 96.6 µM (inactive)

SMILES: O=C1CCCCC1C(Nc1ccc(Cl)cc1)c1ccccc1 (centres undefined)
- IC50 [7]: > 69.5 µM (inactive)
- IC50 [8]: 34.3 µM (inactive)

SMILES: COC(=O)C1=C(C)N(Cc2ccccc2C(F)(F)F)C(NCc2ccccc2)=NC1c1ccc(Cl)cc1 (centres undefined)
- IC50 [6]: > 96.6 µM (inactive)

SMILES: Cc1ccc(C(=O)c2c[nH]nc2-c2cc(Cl)ccc2O)cc1
- AC50 (Cytochrome P450 2D6): 28.2 µM (inconclusive)
- IC50 [9]: > 100 µM (not active)

SMILES: CC(C)(C)n1nnnc1C(c1ccc(C#N)cc1)N1CCCC2(CCCCC2)C1 (centres undefined)
- IC50 [9]: > 100 µM (not active)

SMILES: CCOC(=O)c1c(CSc2ccc(C)cc2)n(C)c2cc(Br)c(O)c(CN(C)C)c12
- AC50 [10]: 465 nM (active)
- AC50 [11]: 342 nM (active)
- AC50 [12]: 58.8 µM (active)
- IC50 [13]: 2.7 µM (active)
- AC50 [14]: 1.32 µM (active)
- EC50 (HEK293 [15]): > 59.6 µM (inactive)
- IC50 [16]: > 66 µM (inactive)
- EC50 (HEK293 [17]): > 59.6 µM (inactive)
- IC50 [18]: > 66 µM (inactive)
- AC50 [19]: 452 nM (active)
- CC50 (Vero): > 25 µM (active)

SMILES: C=CCn1c(-c2csc3c2CCC(C)C3)n[nH]c1=S (centres undefined)
- IC50 [7]: > 69.4 µM (inactive)

SMILES: COc1ccc(OC)c(C2Nc3ccccc3N=C3CC(C)(C)CC(O)=C32)c1 (centres undefined)
- AC50 [20]: > 30 µM (inactive)

SMILES: CN(Cc1ccccc1)C(c1ccnc2ccccc12)c1nnnn1-c1ccc2c(c1)OCCO2 (centres undefined)
- AC50 [20]: 14.2 µM (active)

SMILES: COc1ccc(N2CCC(CNC(=S)Nc3cccc(OC)c3)C2)cc1 (centres undefined)
- IC50 [7]: > 69.5 µM (inactive)

SMILES: CCOc1ccc(C2NC(=O)C(C#N)=C(S)N2c2ccc(OC)cc2)cc1OC (centres undefined)
- IC50 [21]: 134 µM (active)
- IC50 [22]: > 100 µM (active)

SMILES: COc1ccc(N2CCC(CN=C(S)Nc3cccc(OC)c3)C2)cc1 (centres undefined)
- IC50 [8]: > 69.5 µM (inactive)

SMILES: CN1CCN(C2=C(NS(=O)(=O)c3cccs3)C(=O)c3ccccc3C2=O)CC1
- AC50 [23]: 6.98 µM (active)
- AC50 (INS1): 5.87 µM (active)
- AC50 [24]: > 70 µM (inactive)

SMILES: CCN(CC)CCNc1ccnc2cc(Cl)ccc12
- IC50 [9]: > 100 µM (not active)

SMILES: CCc1cc2c(=O)n(CC)c(SC(C)C(=O)Nc3c(C)n(C)n(-c4ccccc4)c3=O)nc2s1 (centres undefined)
- IC50 (Estrogen receptor beta): > 50 µM (not active)

SMILES: Cc1ccccc1-n1nnnc1Sc1nnnn1-c1ccccc1
- EC50 [1]: 4.42 µM (active)
- AC50 [25]: 10.4 µM (active)
- EC50 [3]: 4.94 µM (active)

SMILES: C=CCn1c(S)nnc1-c1csc2c1CCC(C)C2 (centres undefined)
- IC50 [8]: > 69.4 µM (inactive)
